Laboratory results published in paper PMC5218480 (PLoS ONE, 2017).

System: MV-4-11 cells
Assay: Gene expression microarray analysis (Affymetrix PrimeView) and GSEA
Assay type: cell-based, human
Parameters: RFU PODN (11730768_x_at) / Fold change /veh PODN (11730768_x_at) / RFU LINC00158 (11744669_a_at) / Fold change /veh LINC00158 (11744669_a_at) / RFU DUSP10 (11751237_a_at) / Fold change /veh DUSP10 (11751237_a_at) / RFU ID3 (11757404_x_at) / Fold change /veh ID3 (11757404_x_at) / RFU PLEKHG5 (11737974_s_at) / Fold change /veh PLEKHG5 (11737974_s_at) / RFU LRRC4B (11730491_at) / Fold change /veh LRRC4B (11730491_at) / RFU GIMAP4 (11747438_a_at) / Fold change /veh GIMAP4 (11747438_a_at) / RFU KRT8 (11758183_x_at) / Fold change /veh KRT8 (11758183_x_at) / RFU CNN1 (11734310_a_at) / Fold change /veh CNN1 (11734310_a_at) / RFU VPS37D (11726825_at) / Fold change /veh VPS37D (11726825_at) / RFU C10orf10 (11716522_x_at) / Fold change /veh C10orf10 (11716522_x_at) / RFU KIR2DL2 /// KIR2DL4 /// KIR2DL5A /// KIR2DL5B /// KIR2DS1 /// KIR2DS2 /// KIR2DS3 /// KIR2DS4 /// KIR3DL3 /// KIR3DL3 /// KIR3DS1 (11738374_at) / Fold change /veh KIR2DL2 /// KIR2DL4 /// KIR2DL5A /// KIR2DL5B /// KIR2DS1 /// KIR2DS2 /// KIR2DS3 /// KIR2DS4 /// KIR3DL3 /// KIR3DL3 /// KIR3DS1 (11738374_at) / RFU C1QL1 (11718748_at) / Fold change /veh C1QL1 (11718748_at) / RFU TMPRSS4 (11747572_a_at) / Fold change /veh TMPRSS4 (11747572_a_at) / RFU HAMP (11756126_x_at) / Fold change /veh HAMP (11756126_x_at) / RFU RNFT2 (11725882_a_at) / Fold change /veh RNFT2 (11725882_a_at) / RFU NR4A2 (11747474_a_at) / Fold change /veh NR4A2 (11747474_a_at) / RFU ABCC12 (11746883_a_at) / Fold change /veh ABCC12 (11746883_a_at) / RFU TMEM136 (11760407_x_at) / Fold change /veh TMEM136 (11760407_x_at) / RFU CLDN22 /// WWC2 (11732394_at) / Fold change /veh CLDN22 /// WWC2 (11732394_at) / RFU HLA-DPB1 (11760878_x_at) / Fold change /veh HLA-DPB1 (11760878_x_at) / RFU SPINT1 (11716480_a_at) / Fold change /veh SPINT1 (11716480_a_at) / RFU GAP43 (11754022_s_at) / Fold change /veh GAP43 (11754022_s_at) / RFU A4GNT (11735810_at) / Fold change /veh A4GNT (11735810_at) / RFU PRB3 (11715151_x_at) / Fold change /veh PRB3 (11715151_x_at) / RFU TUBB4B (11761932_at) / Fold change /veh TUBB4B (11761932_at) / RFU CAPN14 (11732068_a_at) / Fold change /veh CAPN14 (11732068_a_at) / RFU TMCC2 (11721928_a_at) / Fold change /veh TMCC2 (11721928_a_at) / RFU IRGQ (11745062_a_at) / Fold change /veh IRGQ (11745062_a_at) / RFU FAM174B (11720279_a_at) / Fold change /veh FAM174B (11720279_a_at) / RFU TMPRSS4 (11748680_a_at) / Fold change /veh TMPRSS4 (11748680_a_at) / RFU FAM212B (11763350_a_at) / Fold change /veh FAM212B (11763350_a_at) / RFU PLEKHG5 (11743358_a_at) / Fold change /veh PLEKHG5 (11743358_a_at) / RFU ZSCAN30 (11745921_a_at) / Fold change /veh ZSCAN30 (11745921_a_at) / RFU CMKLR1 (11741424_a_at) / Fold change /veh CMKLR1 (11741424_a_at) / RFU LOC101060620 /// MAPK8IP1 (11723275_at) / Fold change /veh LOC101060620 /// MAPK8IP1 (11723275_at) / RFU SPTSSB (11747773_x_at) / Fold change /veh SPTSSB (11747773_x_at) / RFU PRSS12 (11739890_at) / Fold change /veh PRSS12 (11739890_at) / RFU BIN1 (11741810_x_at) / Fold change /veh BIN1 (11741810_x_at) / RFU WNT11 (11732464_a_at) / Fold change /veh WNT11 (11732464_a_at) / RFU C10orf10 (11716521_a_at) / Fold change /veh C10orf10 (11716521_a_at) / RFU C5orf56 (11738089_at) / Fold change /veh C5orf56 (11738089_at) / RFU CYB561 (11721691_x_at) / Fold change /veh CYB561 (11721691_x_at) / RFU ANKRD19P (11752326_a_at) / Fold change /veh ANKRD19P (11752326_a_at) / RFU OR2T12 /// OR2T33 /// OR2T8 (11738714_s_at) / Fold change /veh OR2T12 /// OR2T33 /// OR2T8 (11738714_s_at) / RFU VCAN (11748164_a_at) / Fold change /veh VCAN (11748164_a_at) / RFU JSRP1 (11732532_at) / Fold change /veh JSRP1 (11732532_at) / RFU KRTAP10-11 (11738290_x_at) / Fold change /veh KRTAP10-11 (11738290_x_at) / RFU MYO3A (11730013_a_at) / Fold change /veh MYO3A (11730013_a_at) / RFU EBF3 (11725865_a_at) / Fold change /veh EBF3 (11725865_a_at) / RFU CAMK2N1 (11719241_x_at) / Fold change /veh CAMK2N1 (11719241_x_at) / RFU C5orf56 (11738088_a_at) / Fold change /veh C5orf56 (11738088_a_at) / RFU OLFML3 (11715873_a_at) / Fold change /veh OLFML3 (11715873_a_at) / RFU LOC100653217 /// NTM (11731650_a_at) / Fold change /veh LOC100653217 /// NTM (11731650_a_at) / RFU MAPK11 (11762145_a_at) / Fold change /veh MAPK11 (11762145_a_at) / RFU FIZ1 (11724087_x_at) / Fold change /veh FIZ1 (11724087_x_at) / RFU OASL (11726364_x_at) / Fold change /veh OASL (11726364_x_at) / RFU SOX15 (11748057_x_at) / Fold change /veh SOX15 (11748057_x_at) / RFU CD79A (11719716_a_at) / Fold change /veh CD79A (11719716_a_at) / RFU HIST1H1D (11736915_at) / Fold change /veh HIST1H1D (11736915_at) / RFU CASKIN2 (11723855_a_at) / Fold change /veh CASKIN2 (11723855_a_at) / RFU LOC730098 (11760151_x_at) / Fold change /veh LOC730098 (11760151_x_at) / RFU OR4N2 (11742367_at) / Fold change /veh OR4N2 (11742367_at) / RFU PRRT2 (11749266_a_at) / Fold change /veh PRRT2 (11749266_a_at) / RFU SNX32 (11753110_a_at) / Fold change /veh SNX32 (11753110_a_at) / RFU CDHR5 (11726645_a_at) / Fold change /veh CDHR5 (11726645_a_at) / RFU RCAN1 (11760418_a_at) / Fold change /veh RCAN1 (11760418_a_at) / RFU FAM167A (11723789_a_at) / Fold change /veh FAM167A (11723789_a_at) / RFU FAM26E (11764081_at) / Fold change /veh FAM26E (11764081_at) / RFU ISYNA1 (11749810_s_at) / Fold change /veh ISYNA1 (11749810_s_at) / RFU ACY1 (11761880_at) / Fold change /veh ACY1 (11761880_at) / RFU 11764098_at / Fold change /veh 11764098_at / RFU SAMD14 (11745864_x_at) / Fold change /veh SAMD14 (11745864_x_at) / RFU NPB (11741838_a_at) / Fold change /veh NPB (11741838_a_at) / RFU TMPRSS6 (11731388_a_at) / Fold change /veh TMPRSS6 (11731388_a_at) / RFU KRTAP10-2 (11738614_at) / Fold change /veh KRTAP10-2 (11738614_at) / RFU ARHGAP8 /// PRR5-ARHGAP8 (11727945_x_at) / Fold change /veh ARHGAP8 /// PRR5-ARHGAP8 (11727945_x_at) / RFU KRTAP5-7 /// NADSYN1 (11734609_at) / Fold change /veh KRTAP5-7 /// NADSYN1 (11734609_at) / RFU RASL12 (11751679_a_at) / Fold change /veh RASL12 (11751679_a_at) / RFU CDKN2B (11736163_a_at) / Fold change /veh CDKN2B (11736163_a_at) / RFU PRF1 (11729649_at) / Fold change /veh PRF1 (11729649_at) / RFU, ZNF638 /// ZNF638-IT1 / Fold change vs veh, ZNF638 /// ZNF638-IT1 / RFU, PANK3 / Fold change vs veh, PANK3 / RFU, SH3YL1 / Fold change vs veh, SH3YL1 / RFU, ZEB2 / Fold change vs veh, ZEB2 / RFU, NRIP1 / Fold change vs veh, NRIP1 / RFU, PTTG1IP / Fold change vs veh, PTTG1IP / RFU, CAPN2 / Fold change vs veh, CAPN2 / RFU, MED14 / Fold change vs veh, MED14 / RFU, SNORA58 / Fold change vs veh, SNORA58 / RFU, C1orf63 / Fold change vs veh, C1orf63 / RFU, LRRFIP1 / Fold change vs veh, LRRFIP1 / RFU, NDUFAF7 / Fold change vs veh, NDUFAF7 / RFU, SLC12A2 / Fold change vs veh, SLC12A2 / RFU, IBTK / Fold change vs veh, IBTK / RFU, ESF1 / Fold change vs veh, ESF1 / Fold change vs veh, TMEM50B / RFU, TAOK1 / Fold change vs veh, TAOK1 / RFU, ACBD3 / Fold change vs veh, ACBD3 / RFU, TMA16 / Fold change vs veh, TMA16 / RFU, RWDD3 / Fold change vs veh, RWDD3 / RFU, BCAT1 / Fold change vs veh, BCAT1 / RFU, EDEM3 / Fold change vs veh, EDEM3 / RFU, TMEM33 / Fold change vs veh, TMEM33 / RFU, WDR75 / Fold change vs veh, WDR75 / RFU, AHCTF1 / Fold change vs veh, AHCTF1 / RFU, TFRC / Fold change vs veh, TFRC / RFU, ZDHHC17 / Fold change vs veh, ZDHHC17 / RFU, NOM1 / Fold change vs veh, NOM1 / RFU, ARL8B / Fold change vs veh, ARL8B / RFU, ZBTB11 / Fold change vs veh, ZBTB11 / RFU, TAMM41 / Fold change vs veh, TAMM41 / RFU, KIAA1704 /// LOC100996395 / Fold change vs veh, KIAA1704 /// LOC100996395 / RFU, ING1 / Fold change vs veh, ING1 / RFU, TRMT61B / Fold change vs veh, TRMT61B / RFU, FUBP3 / Fold change vs veh, FUBP3 / RFU, TP53 / Fold change vs veh, TP53 / RFU, TNKS2 / Fold change vs veh, TNKS2 / RFU, ZFP14 / Fold change vs veh, ZFP14 / RFU, ACTR2 / Fold change vs veh, ACTR2 / RFU, PPP3R1 / Fold change vs veh, PPP3R1 / RFU, PIK3R1 / Fold change vs veh, PIK3R1 / RFU, HNRNPA1 / Fold change vs veh, HNRNPA1 / RFU, RNF170 / Fold change vs veh, RNF170 / RFU, ZNF28 / Fold change vs veh, ZNF28 / RFU, RNGTT / Fold change vs veh, RNGTT / RFU, OGT / Fold change vs veh, OGT / RFU, BRD1 / Fold change vs veh, BRD1 / RFU, MARS / Fold change vs veh, MARS / RFU, ZNF655 / Fold change vs veh, ZNF655 / RFU, FAHD1 / Fold change vs veh, FAHD1 / RFU, BDP1 / Fold change vs veh, BDP1 / RFU, LRRCC1 / Fold change vs veh, LRRCC1 / RFU, ARID1A / Fold change vs veh, ARID1A / RFU, ZNF146 / Fold change vs veh, ZNF146 / RFU, ZNF330 / Fold change vs veh, ZNF330 / RFU, GPN3 / Fold change vs veh, GPN3 / RFU, C9orf123 / Fold change vs veh, C9orf123 / RFU, N4BP2L2 / Fold change vs veh, N4BP2L2 / RFU, ARFIP1 / Fold change vs veh, ARFIP1 / RFU, FAM179B / Fold change vs veh, FAM179B / RFU, BCL10 / Fold change vs veh, BCL10 / RFU, UHRF1BP1L / Fold change vs veh, UHRF1BP1L / RFU, BET1 / Fold change vs veh, BET1 / RFU, CNOT2 / Fold change vs veh, CNOT2 / RFU, ZNF268 / Fold change vs veh, ZNF268 / Fold change vs veh, ZNF507 / RFU, DGCR2 / Fold change vs veh, DGCR2 / RFU, WDSUB1 / Fold change vs veh, WDSUB1 / Fold change vs veh, HSP90B1 /// MIR3652 / RFU, ADSS / Fold change vs veh, ADSS / RFU, GK / Fold change vs veh, GK / RFU, ZNF148 / Fold change vs veh, ZNF148 / RFU, TAF9 / Fold change vs veh, TAF9 / RFU, SLC1A5 / Fold change vs veh, SLC1A5 / RFU, SLMO2 / Fold change vs veh, SLMO2 / RFU, ABCC4 / Fold change vs veh, ABCC4 / RFU, LOC101060439 /// RAP1B / Fold change vs veh, LOC101060439 /// RAP1B / RFU, RFX7 / Fold change vs veh, RFX7 / RFU, GTPBP10 / Fold change vs veh, GTPBP10 / RFU, CNEP1R1 / Fold change vs veh, CNEP1R1 / RFU, BIVM-ERCC5 /// ERCC5 / Fold change vs veh, BIVM-ERCC5 /// ERCC5 / RFU, ILF3 / Fold change vs veh, ILF3 / RFU 11762660_at / Fold change /veh 11762660_at / RFU VCAN (11757783_s_at) / Fold change /veh VCAN (11757783_s_at) / RFU DDX43 (11728927_at) / Fold change /veh DDX43 (11728927_at) / RFU KRT8 (11758188_x_at) / Fold change /veh KRT8 (11758188_x_at) / RFU NKD1 (11759106_at) / Fold change /veh NKD1 (11759106_at) / RFU SRD5A1 (11742802_a_at) / Fold change /veh SRD5A1 (11742802_a_at) / RFU TPSAB1 /// TPSB2 (11721975_s_at) / Fold change /veh TPSAB1 /// TPSB2 (11721975_s_at) / RFU GSTM3 (11746129_a_at) / Fold change /veh GSTM3 (11746129_a_at) / RFU IL23R (11737362_x_at) / Fold change /veh IL23R (11737362_x_at) / RFU TMEM51 (11727254_a_at) / Fold change /veh TMEM51 (11727254_a_at) / RFU PIWIL2 (11732686_x_at) / Fold change /veh PIWIL2 (11732686_x_at) / RFU ORM1 (11744905_x_at) / Fold change /veh ORM1 (11744905_x_at) / RFU CCDC152 (11743942_at) / Fold change /veh CCDC152 (11743942_at) / RFU ECM1 (11717891_a_at) / Fold change /veh ECM1 (11717891_a_at) / RFU IL23R (11748794_a_at) / Fold change /veh IL23R (11748794_a_at) / RFU TNFAIP8L3 (11732012_x_at) / Fold change /veh TNFAIP8L3 (11732012_x_at) / RFU MBOAT4 (11741988_at) / Fold change /veh MBOAT4 (11741988_at) / RFU 11764193_at / Fold change /veh 11764193_at / RFU TMEM53 (11763286_at) / Fold change /veh TMEM53 (11763286_at) / RFU MAGEB2 (11727129_at) / Fold change /veh MAGEB2 (11727129_at) / RFU TMEM200A (11744735_a_at) / Fold change /veh TMEM200A (11744735_a_at) / RFU CCDC152 (11751479_a_at) / Fold change /veh CCDC152 (11751479_a_at) / RFU FAM211A (11726209_a_at) / Fold change /veh FAM211A (11726209_a_at) / RFU RGS16 (11746705_a_at) / Fold change /veh RGS16 (11746705_a_at) / RFU VCAN (11755009_s_at) / Fold change /veh VCAN (11755009_s_at) / RFU RHOB (11743442_s_at) / Fold change /veh RHOB (11743442_s_at) / RFU RGS16 (11720943_a_at) / Fold change /veh RGS16 (11720943_a_at) / RFU RGS16 (11720944_at) / Fold change /veh RGS16 (11720944_at) / RFU, VPS4B / Fold change vs veh, VPS4B / RFU, CREB1 / Fold change vs veh, CREB1 / RFU, DNAJC13 / Fold change vs veh, DNAJC13 / RFU, GNAQ / Fold change vs veh, GNAQ / RFU, CDK5R1 / Fold change vs veh, CDK5R1 / RFU, ZRANB3 / Fold change vs veh, ZRANB3 / RFU, CUL4A / Fold change vs veh, CUL4A / RFU, CCNY / Fold change vs veh, CCNY / RFU, UFL1 / Fold change vs veh, UFL1 / RFU, COG3 / Fold change vs veh, COG3 / RFU, DIAPH2 / Fold change vs veh, DIAPH2 / RFU, SKA2 / Fold change vs veh, SKA2 / RFU, AFF3 / Fold change vs veh, AFF3 / RFU, LMF1 / Fold change vs veh, LMF1 / RFU, IPO11 / Fold change vs veh, IPO11 / RFU, DFFB / Fold change vs veh, DFFB / RFU, FOXP1 / Fold change vs veh, FOXP1 / RFU, CARD8 / Fold change vs veh, CARD8 / RFU, STRN3 / Fold change vs veh, STRN3 / RFU, ADK / Fold change vs veh, ADK / RFU, RASSF2 / Fold change vs veh, RASSF2 / RFU, WIPF1 / Fold change vs veh, WIPF1 / RFU, LARP1B / Fold change vs veh, LARP1B / RFU, RASA1 / Fold change vs veh, RASA1 / RFU, RB1 / Fold change vs veh, RB1 / RFU, PPFIA1 / Fold change vs veh, PPFIA1 / RFU, MAT2A / Fold change vs veh, MAT2A / RFU, CCT5 / Fold change vs veh, CCT5 / RFU, WDR92 / Fold change vs veh, WDR92 / RFU, CUX1 / Fold change vs veh, CUX1 / RFU, TTC7A / Fold change vs veh, TTC7A / RFU, TMEM135 / Fold change vs veh, TMEM135 / RFU, DEPTOR / Fold change vs veh, DEPTOR / RFU, CPM / Fold change vs veh, CPM / RFU, DNAJB6 / Fold change vs veh, DNAJB6 / RFU, CACNA2D3 / Fold change vs veh, CACNA2D3 / RFU, DTX4 / Fold change vs veh, DTX4 / RFU, TFCP2 / Fold change vs veh, TFCP2 / RFU, GMCL1 /// GMCL1P1 / Fold change vs veh, GMCL1 /// GMCL1P1 / RFU, AEBP2 / Fold change vs veh, AEBP2 / RFU, SNHG1 /// SNORD22 /// SNORD25 /// SNORD26 /// SNORD27 /// SNORD28 /// SNORD29 /// SNORD31 / Fold change vs veh, SNHG1 /// SNORD22 /// SNORD25 /// SNORD26 /// SNORD27 /// SNORD28 /// SNORD29 /// SNORD31 / Fold change (Aza/veh), C12orf56 (ProbeSet 11735607_a_at) / Fold change (ACY-1035/veh), C12orf56 (ProbeSet 11735607_a_at) / Fold change (Aza/veh), FGFR1OP (ProbeSet 11751329_s_at) / Fold change (ACY-1035/veh), FGFR1OP (ProbeSet 11751329_s_at) / Fold change (Aza/veh), VPS36 (ProbeSet 11739960_a_at) / Fold change (ACY-1035/veh), VPS36 (ProbeSet 11739960_a_at) / RFU SYPL1 (11715823_x_at) / Fold change /veh SYPL1 (11715823_x_at) / RFU IGFBP7 (11715501_s_at) / Fold change /veh IGFBP7 (11715501_s_at) / RFU REEP3 (11722064_at) / Fold change /veh REEP3 (11722064_at) / RFU IGLL1 (11728026_x_at) / Fold change /veh IGLL1 (11728026_x_at): dose or concentration left out as unconfirmed
Conditions: ProbeSet 11719817_x_at; LIST B

## Nc1ncn([C@@H]2O[C@H](CO)[C@@H](O)[C@H]2O)c(=O)n1 [azacitidine]
  RFU, BET1: 81.04 RFU
